Key:
Mcl-1 = Mcl-1 (Homo sapiens (Human), UniProt Q07820); details: cited from earlier work
RS4;11 cells = details: cited from earlier work
CLL = details: average, read-out: average EC50, apoptosis in CLL; cited from earlier work
RS4; 11 xenografts = details: single dose of 100 mg/kg; cited from earlier work
Bcl-w = Bcl-w (Homo sapiens (Human), UniProt Q92843); details: cited from earlier work
SCLC H146 cell line = details: read-out: IC50 against SCLC H146 cell line; cited from earlier work
H345 xenograft = details: 100 mg/kg/day, H345 xenograft model; cited from earlier work
[1] = system: small-cell lung cancer xenograft; details: oral administration, alone; cited from earlier work
[2] = system: acute lymphoblastic leukemia xenograft; details: oral administration, alone; cited from earlier work
circulating platelets = details: clinical trial, single agent; cited from earlier work
[3] = in vivo; cited from earlier work
[4] = cited from earlier work
BCL-2 = BCL-2 (Homo sapiens (Human), UniProt P10415); test: BCL-2 competition binding (fluorescence polarization) assay; details: fluorescein-labeled BH3 peptide 15 nM, purified BCL-2 protein 30 nM, 3 hours incubation at room temperature; read-out: BCL2 IC50
BCL-2, sequence (P10415 whole entry): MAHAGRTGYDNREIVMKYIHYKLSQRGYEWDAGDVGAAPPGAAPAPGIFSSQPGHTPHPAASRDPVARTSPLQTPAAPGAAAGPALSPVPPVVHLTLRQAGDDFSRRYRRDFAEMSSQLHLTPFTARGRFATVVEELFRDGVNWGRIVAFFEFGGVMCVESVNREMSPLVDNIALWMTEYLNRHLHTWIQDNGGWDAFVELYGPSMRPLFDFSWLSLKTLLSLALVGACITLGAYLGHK
Method: Biological Example 1: BCL-2 Competition Binding (Fluorescence Polarization) Assay
The fluorescence-labeled 23 amino acid peptide BH3 was purchased from CalBiochem ([…]). […] This binding assay was performed in 96-well plate and with each assay contained 15 and 30 nM of labeled peptide and purified BCL-2 protein (purchased from R&D Systems, Inc). The assay buffer contained 20 mM Hepes (pH 7.0), 50 mM KCl, 5 mM MgCl2, 20 mM Na2MoO4, 0.1 mg/ml Bovine Gamma Globulin and 0.01% NP40. Compounds were diluted in DMSO and added to the final assay with concentration range from 20 μM to 2 nM. The polarization degree (mP) value was determined by BioTek Synergy II with background subtraction after 3 hours of incubation at room temperature. IC50 was calculated using Prism software with sigmoidal dose-response curve fitting. ABT-737 was used as reference compound. Such assays, carried out with a range of doses of test compounds, allowed the determination of an approximate IC50 value.

[5] = system: BCL-2-dependent acute lymphoblastic leukemia (ALL) cell line RS4;11; test: In vitro anti-proliferation assay (ATPlite luminescence) in RS4;11; type: cell-based; details: RS4;11 cells, about 72 hours, medium with 5% FBS or 10% normal human serum
Method: Cell antiproliferation was assayed by PerkinElmer ATPlite™ Luminescence Assay System. Briefly, the various test cancer cell lines were plated at a density of about 1×10^4 cells per well in Costar 96-well plates, and were incubated with different concentrations of compounds for about 72 hours in medium supplemented with 5% FBS or 10% normal human serum (NHS). One lyophilized substrate solution vial was then reconstituted by adding 5 mL of substrate buffer solution, and was agitated gently until the solution was homogeneous. About 50 μL of mammalian cell lysis solution was added to 100 μL of cell suspension per well of a microplate, and the plate was shaken for about five minutes in an orbital shaker at 700 rpm. This procedure was used to lyse the cells and to stabilize the ATP. Next, 50 μL substrate solution was added to the wells and microplate was shaken for five minutes in an orbital shaker at 700 rpm. Finally, the luminescence was measured by a PerkinElmer TopCount® Microplate Scintillation Counter. Such assays, carried out with a range of doses of test compounds, allowed the determination of the cellular anti-antiproliferative IC50 of the compounds of the present invention.

Bcl-w, sequence (Q92843 whole entry): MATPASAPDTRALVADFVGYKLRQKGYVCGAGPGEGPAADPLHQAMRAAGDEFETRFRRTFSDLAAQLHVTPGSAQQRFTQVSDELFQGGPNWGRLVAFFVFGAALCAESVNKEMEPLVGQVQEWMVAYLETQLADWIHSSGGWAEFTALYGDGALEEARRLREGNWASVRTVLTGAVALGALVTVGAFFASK
Mcl-1, sequence (Q07820 whole entry): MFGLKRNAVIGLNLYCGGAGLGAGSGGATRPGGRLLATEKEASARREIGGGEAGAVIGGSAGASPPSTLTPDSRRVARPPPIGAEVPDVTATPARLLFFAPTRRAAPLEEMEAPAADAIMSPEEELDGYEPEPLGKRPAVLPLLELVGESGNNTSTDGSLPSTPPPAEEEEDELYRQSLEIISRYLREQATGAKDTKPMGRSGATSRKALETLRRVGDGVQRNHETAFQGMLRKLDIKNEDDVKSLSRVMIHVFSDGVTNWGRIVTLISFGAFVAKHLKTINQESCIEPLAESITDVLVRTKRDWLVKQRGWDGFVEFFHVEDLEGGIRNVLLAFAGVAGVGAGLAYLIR

SMILES: CC1(C)CCC(CN2CCN(c3ccc(C(=O)NS(=O)(=O)c4ccc(NCC5CCOCC5)c([N+](=O)[O-])c4)c(Oc4cnc5[nH]ccc5c4)c3)CC2)=C(c2ccc(Cl)cc2)C1 [ABT-199]
- activity to Mcl-1 (Mcl-1): no activity
- EC50 (RS4;11 cells): 8 nM
- EC50 (CLL): 3 nM
- maximal tumor growth inhibition (RS4; 11 xenografts): 95%
- tumor growth delay (RS4; 11 xenografts): 152%

SMILES: CC1(C)CCC(c2ccc(Cl)cc2)=C(CN2CCN(c3ccc(C(=O)NS(=O)(=O)c4ccc(N[C@H](CCN5CCOCC5)CSc5ccccc5)c(S(=O)(=O)C(F)(F)F)c4)cc3)CC2)C1 [ABT-263]
- Ki (Bcl-w): ≤ 1 nM
- IC50 (SCLC H146 cell line): 110 nM
- TGI (H345 xenograft): 80%
- treated tumors indicating at least a 50% reduction in tumor volume (H345 xenograft): 20%
- tumor response, small-cell lung cancer xenograft models [1]: complete tumor regressions
- tumor response, acute lymphoblastic leukemia xenograft models [2]: complete tumor regressions
- number of circulating platelets (circulating platelets): rapid, concentration-dependent decrease

SMILES: CN(C)CC[C@H](CSc1ccccc1)Nc1ccc(S(=O)(=O)NC(=O)c2ccc(N3CCN(Cc4ccccc4-c4ccc(Cl)cc4)CC3)cc2)cc1[N+](=O)[O-] [ABT-737]
- oral bioavailability [3]: not orally bioavailable
- aqueous solubility [4]: low aqueous solubility

SMILES: O=C(NS(=O)(=O)c1ccc(NC[C@H]2COCCO2)c([N+](=O)[O-])c1)c1ccc(N2CCN(CC3=C(c4ccc(Cl)cc4)CCCCC3)CC2)cc1N1CCCOc2nc3[nH]ccc3cc21 [Example 75, 4-(4-[[2-(4-chlorophenyl)cyclohept-1-en-1-yl]methyl]piperazin-1-yl)-N-(4-[[(2S)-1,4-dioxan-2-ylmethyl]amino]-3-nitrobenzenesulfonyl)-2-[14-oxa-2,4,10-triazatricyclo[7.5.0.0^[3,7]]tetradeca-1(9),2,5,7-tetraen-10-yl]benzamide]
- IC50 (BCL-2): 0.6 nM
- IC50 [5]: 2.7 nM

SMILES: COC1(C)CCC(c2ccc(Cl)cc2)=C(CN2CCN(c3ccc(C(=O)NS(=O)(=O)c4ccc(NC[C@H]5COCCO5)c([N+](=O)[O-])c4)c(N4CCCOc5nc6[nH]ccc6cc54)c3)CC2)C1 (stereo partly drawn) [Example 77, 4-(4-[[2-(4-chlorophenyl)-5-methoxy-5-methylcyclohex-1-en-1-yl]methyl]piperazin-1-yl)-N-(4-[[(2S)-1,4-dioxan-2-ylmethyl]amino]-3-nitrobenzenesulfonyl)-2-[14-oxa-2,4,10-triazatricyclo[7.5.0.0[3,7]]tetradeca-1(9),2,5,7-tetraen-10-yl]benzamide]
- IC50 (BCL-2): 0.08 nM
- IC50 [5]: 0.8 nM
